Experimental data: ChEMBL document CHEMBL5108080 (J Med Chem, 2022)

How the values were obtained:
Influenza A virus [1] = test: (§1) Antiviral activity against group 2 influenza A virus H3N2 (A/Victoria/361/2011) infected in human A549 cells assessed as inhibition of viral entry preincubated with compound for 30 mins followed by viral infection for 1 hour further incubated for 48 hrs with replacement of fresh medium containing compound.; format: functional, organism-based
Influenza A virus [2] = test: as §1, with “(A/Hong Kong-11/1968)” for “(A/Victoria/361/2011)”, “compound” for “compound.”; format: functional, organism-based

SMILES	EC50 (Influenza A virus [1]) [µM]	EC50 (Influenza A virus [2]) [µM]
c1ccc(-c2nc3ncccn3c2NC2CCCCC2)cc1	0.73	0.071
Fc1ccc(-c2nc3ncccn3c2NC2CCCCC2)cc1	0.42	0.32
Oc1ccc(-c2nc3ncccn3c2NC2CCCCC2)cc1	1.5	0.36
Brc1ccc(-c2nc3ncccn3c2NC2CCCCC2)cc1	1.5	0.19
COc1ccc(-c2nc3ncccn3c2NC2CCCCC2)cc1	0.64	0.03
CCOC(=O)C1=C[C@@H](OC(CC)CC)[C@H](NC(C)=O)[C@@H](N)C1 [OSELTAMIVIR]	> 10	0.022
Cc1cc(Br)ccc1-c1nc2ncccn2c1NC1CCCCC1	–	0.34
